{
  "source": "patent US8492418B2",
  "about": "“Method of treating schizophrenia prodrome” (Yale University, priority 2005, dated 2013)",
  "key": {"[1]": {"test_system": "chronic patients with persistent negative symptoms (schizophrenia)", "conditions": "157 chronic patients, four sites, adjunctive treatment vs placebo; cited from earlier work"}, "[2]": {"biological_target": "glycine binding site of the NMDA receptor (Homo sapiens, UniProt Q05586)", "conditions": "partial agonist; cited from earlier work"}, "[3]": {"test_system": "acutely exacerbated patients (schizophrenia)", "conditions": "65 acutely exacerbated patients, in addition to antipsychotic; cited from earlier work"}, "[4]": {"test_system": "prodromal patients (schizophrenia prodrome)", "assay": "ongoing unpublished open label trial of ethyl-EPA, design nearly identical to the glycine pilot study", "type": "in vivo, human", "conditions": "8 weeks, n=7", "from_the_text": "Group SOPS change analysis. […] The effect sizes observed with glycine are substantially larger than those observed in my parallel studies with other medications (Table 2). Data for the placebo and olanzapine samples shown are from the published double blind randomized comparison of olanzapine vs placebo (Woods et al., 2003). […] The very large differences between the glycine effect sizes and the placebo effect sizes provide strong support for efficacy. The large differences between the glycine effect sizes and the olanzapine effect sizes are also impressive."}, "[5]": {"test_system": "prodromal patients (schizophrenia prodrome)", "from_the_text": "I therefore treated 10 patients meeting criteria for the schizophrenia prodrome with the NMDA […] glycine, used alone without antipsychotic medication. […] To my knowledge, this represents the first attempt to use direct or indirect NMDA/glycine agonists for patients with the schizophrenia prodrome.\nThe inventor of the present invention enrolled 10 prodromal patients in an eight-week open label trial of oral glycine. The patients were seven males and three females, whose mean±sd age was 17.3±3.3 years. All ten patients met schizophrenia prodrome diagnostic criteria, attenuated positive symptom subgroup, according to the Structured Interview for Prodromal Syndromes (Miller et al., 2002). The mean Scale of Prodromal Symptoms (SOPS) total score at baseline was 39.7, and the positive and negative subscale score means were respectively 11.3 and 12.4 (Table 1).\nGlycine was administered orally as powder mixed with water at a dose titrated to 0.4 g/kg BID by week two. Concomitant medications were continued so long as there had been no dose adjustments in the eight weeks prior to enrollment and the patient continued to meet prodromal symptomatic criteria at baseline. Efficacy was assessed using the Scale of Prodromal Symptoms (SOPS). The SOPS consists of 19 items, each scored 0-6, and yields a total score and positive symptom (5 items), negative symptom (six items), disorganization (4 items), and general symptom (4 items) subscale scores.\nCategorical outcomes. […] These criteria required all five positive symptom ratings to be below the prodromal range (2 or below).\nGroup SOPS change analysis. […] Data for the placebo and olanzapine samples shown are from the published double blind randomized comparison of olanzapine vs placebo (Woods et al., 2003). Data for ethyl-EPA (an omega-3 fatty acid) are from an ongoing unpublished open label trial that follows a design nearly identical to the current glycine pilot study.\nTo accomplish this we modified for the one sample case the sequential monitoring method of O'Brien and Fleming that protects the overall alpha from […] due to multiple looks (Woods and McGlashan, 2002). […] Analyses were planned every 5 patients."}, "prodromal patients": {"test_system": "prodromal patients", "conditions": "risperidone plus cognitive therapy plus usual care; 59 patients randomized; cited from earlier work"}, "[6]": {"conditions": "8 weeks, n=10, baseline score as covariate"}, "[7]": {"conditions": "8 weeks, open label glycine, n=10"}, "[8]": {"conditions": "endpoint (LOCF) minus baseline, 8 weeks, n=10"}, "[9]": {"conditions": "oral glycine titrated to 0.4 g/kg BID, 8 weeks, LOCF, n=10"}},
  "note": "Where two headings read alike, the source gives them in different places.",
  "data": [
    {"smiles": "NC1CONC1=O", "note": "[D-cycloserine, 4-aminoisoxazolidin-3-one, reference compound]", "values": [
      {"measurement": "difference among treatment groups", "setting": "[1]", "result": "no significant differences overall among groups"},
      {"measurement": "activation relative to that seen with glycine, D-alanine or D-serine", "setting": "[2]", "result": "40-60%"}
    ]},
    {"smiles": "N[C@H](CO)C(=O)O", "note": "[D-serine]", "values": [
      {"measurement": "separation from placebo", "setting": "[3]", "result": "did not separate from placebo"}
    ]},
    {"smiles": "CC/C=C\\C/C=C\\C/C=C\\C/C=C\\C/C=C\\CCCC(=O)OCC", "note": "[Ethyl-EPA, ethyl-EPA]", "values": [
      {"measurement": "SOPS LOCF within group effect size, DIS", "setting": "[4]", "result": "−0.05"},
      {"measurement": "SOPS LOCF within group effect size, GEN", "setting": "[4]", "result": "−0.17"},
      {"measurement": "SOPS LOCF within group effect size, NEG", "setting": "[4]", "result": 0.24},
      {"measurement": "SOPS LOCF within group effect size, POS", "setting": "[4]", "result": 0.47},
      {"measurement": "SOPS LOCF within group effect size, TOTAL", "setting": "[4]", "result": 0.18}
    ]},
    {"smiles": "NCC(=O)O", "note": "[Glycine, glycine]", "values": [
      {"measurement": "difference among treatment groups", "setting": "[1]", "result": "no significant differences overall among groups"},
      {"measurement": "group SOPS change, LOCF analysis", "setting": "[5]; 8 weeks, n=10", "result": "improved significantly as a group on the total score and on all four subscales"},
      {"measurement": "group SOPS change, MMRM analysis", "setting": "[5]; 8 weeks, n=10", "result": "improved significantly as a group on the total score and on 3/4 subscales"},
      {"measurement": "MMRM-based within group SOPS improvement, DIS", "setting": "[5]; [6]", "result": "3.9 ± 2.2"},
      {"measurement": "MMRM-based within group SOPS improvement, GEN", "setting": "[5]; [6]", "result": "4.1 ± 3.5"},
      {"measurement": "MMRM-based within group SOPS improvement, NEG", "setting": "[5]; [6]", "result": "3.0 ± 5.2"},
      {"measurement": "MMRM-based within group SOPS improvement, POS", "setting": "[5]; [6]", "result": "7.4 ± 3.2"},
      {"measurement": "MMRM-based within group SOPS improvement, TOTAL", "setting": "[5]; [6]", "result": "18.2 ± 9.9"},
      {"measurement": "SOPS LOCF within group effect size, DIS", "setting": "[5]; [7]", "result": 1.05},
      {"measurement": "SOPS LOCF within group effect size, GEN", "setting": "[5]; [7]", "result": 1.12},
      {"measurement": "SOPS LOCF within group effect size, NEG", "setting": "[5]; [7]", "result": 0.74},
      {"measurement": "SOPS LOCF within group effect size, POS", "setting": "[5]; [7]", "result": 1.10},
      {"measurement": "SOPS LOCF within group effect size, TOTAL", "setting": "[5]; [7]", "result": 1.39},
      {"measurement": "conversion to psychosis", "setting": "[5]; 10 glycine-treated patients, 8 weeks", "result": "None of the glycine-treated patients converted to psychosis"},
      {"measurement": "sequential monitoring vs historical placebo (sufficiency)", "setting": "[5]; O'Brien and Fleming method modified for one sample", "result": "crossed the decision boundary for sufficiency after 10 patients"},
      {"measurement": "SOPS DIS score, baseline mean", "setting": "[5]; baseline, before glycine, disorganization subscale, n=10", "result": 6.5},
      {"measurement": "SOPS GEN score, baseline mean", "setting": "[5]; baseline, before glycine, general symptom subscale, n=10", "result": 9.5},
      {"measurement": "SOPS TOTAL score, baseline mean", "setting": "[5]; baseline, before glycine, n=10", "result": 39.7},
      {"measurement": "SOPS NEG score, baseline mean", "setting": "[5]; baseline, before glycine, negative symptom subscale, n=10", "result": 12.4},
      {"measurement": "SOPS POS score, baseline mean", "setting": "[5]; baseline, before glycine, positive symptom subscale, n=10", "result": 11.3},
      {"measurement": "SOPS DIS endpoint change, mean", "setting": "[5]; [8]", "result": "−3.1"},
      {"measurement": "SOPS GEN endpoint change, mean", "setting": "[5]; [8]", "result": "−3.5"},
      {"measurement": "SOPS NEG endpoint change, mean", "setting": "[5]; [8]", "result": "−3.0"},
      {"measurement": "SOPS POS endpoint change, mean", "setting": "[5]; [8]", "result": "−5.7"},
      {"measurement": "SOPS TOTAL endpoint change, mean", "setting": "[5]; [8]", "result": "−15.3"},
      {"measurement": "early remission criteria met (all five positive symptom ratings 2 or below)", "setting": "[5]; of the seven completers, during 8 weeks on glycine", "result": "three met early remission criteria"},
      {"measurement": "SOPS DIS score, endpoint (LOCF) mean", "setting": "[5]; [9]", "result": 3.4},
      {"measurement": "SOPS GEN score, endpoint (LOCF) mean", "setting": "[5]; [9]", "result": 6.0},
      {"measurement": "SOPS NEG score, endpoint (LOCF) mean", "setting": "[5]; [9]", "result": 9.4},
      {"measurement": "SOPS POS score, endpoint (LOCF) mean", "setting": "[5]; [9]", "result": 5.6},
      {"measurement": "SOPS TOTAL score, endpoint (LOCF) mean", "setting": "[5]; [9]", "result": 24.4}
    ]},
    {"smiles": "Cc1nc2n(c(=O)c1CCN1CCC(c3noc4cc(F)ccc34)CC1)CCCC2", "note": "[risperidone]", "values": [
      {"measurement": "six month conversion to psychosis rate", "setting": "prodromal patients", "result": 9.7, "unit": "%"}
    ]},
    {"smiles": "CNCC(=O)O", "note": "[sarcosine]", "values": [
      {"measurement": "separation from placebo", "setting": "[3]", "result": "did"}
    ]}
  ]
}
